This assay has as its target T1, GST-tagged KRAS G12D (2-169) (Homo sapiens, UniProt P01116, G12D).
T1 construct: GST-tagged KRAS^G12D (2-169, Reaction Biology, MSC-11-539); purchased Reaction Biology MSC-11-539 (KRAS G12D); MSC-11-502 (SOS1cat)
Nature of the assay: Nucleotide exchange assay (NEA), HTRF of SOS-mediated GTP-DY-647P1 binding. Type of assay: biochemical. As to conditions: 5 nM GST-KRAS G12D, 20 nM SOScat, 150 nM GTP; compound 1 h at RT. Summed up: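 SOS1cat (564-1049)-driven loading of GTP-DY-647P1 onto KRAS G12D, read by HTRF with anti-GST Tb cryptate donor; compound preincubated with KRAS 1 h at RT. Final 5 nM KRAS, 20 nM SOScat, 150 nM GTP, pH 7.3 HEPES buffer; read up to 90 min at RT. Blanked to no-SOS1; 4-parameter fit of % inhibition.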
For orientation: Time-resolved FRET reads energy transfer from a long-lived donor to a nearby acceptor.

Where only a bound is given, the exact number is not on record here.

T1 sequence (P01116 2-169 isoform P01116-2 G12D): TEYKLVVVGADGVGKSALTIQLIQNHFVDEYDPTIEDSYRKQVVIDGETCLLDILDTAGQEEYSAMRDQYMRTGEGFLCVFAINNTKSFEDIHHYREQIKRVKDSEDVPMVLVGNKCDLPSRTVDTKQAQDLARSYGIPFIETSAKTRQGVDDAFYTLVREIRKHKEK

For orientation: IC50 means the concentration that inhibits the measured activity by half. In the case of `CN1Cc2c(nc(OC[C@@]34CCCN3C[C@H](F)C4)nc2N2CCCn3nc(-c4nnnn4C)c(Cl)c3C2)C[C@]12CCCc1ccccc12` [Compound 99, (7S)-4-[3-chloro-2-(1-methyltetrazol-5-yl)-4,6,7,8-tetrahydropyrazolo[1,5-a][1,4]diazepin-5-yl]-2-[[(2R,8S)-2-fluoro-1,2,3,5,6,7-hexahydropyrrolizin-8-yl]methoxy]-6-methyl-spiro[5,8-dihydropyrido[4,3-d]pyrimidine-7,1′-tetralin]], the IC50 is less than 10 nM.
To `OC1CCCN(c2nc(OC[C@@]34CCCN3C[C@H](F)C4)nc3c2COC2(CCCc4ccc(Cl)cc42)C3)CC1` (stereo partly drawn) [Compound 17, 1-(7-chloro-2′-(((2R,7aS)-2-fluorotetrahydro-1H-pyrrolizin-7a(5H)-yl)methoxy)-3,4,5′,8′-tetrahydro-2H-spiro[naphthalene-1,7′-pyrano[4,3-d]pyrimidin]-4′-yl)azepan-4-ol] belongs 1000 to 20000 nM; to `Oc1ccc2c(c1)C1(CCC2)Cc2nc(OC[C@@]34CCCN3C[C@H](F)C4)nc(N3CCCCCC3)c2CO1` (single isomer, unassigned) [Compound 8], 100 to 1000 nM; to `O=C1NC(=O)C2(CCCN(c3nc(OC[C@@]45CCCN4C[C@H](F)C5)nc4c3COC3(CCc5c(Cl)cccc53)C4)C2)N1` (single isomer, unassigned) [Compound 24A, (5*)-9-[(7*)-4′-chloro-2-[[(2R,8S)-2-fluoro-1,2,3,5,6,7-hexahydropyrrolizin-8-yl]methoxy]spiro[5,8-dihydropyrano[4,3-d]pyrimidine-7,1′-indane]-4-yl]-1,3,9-triazaspiro[4.5]decane-2,4-dione], 10 to 100 nM.
`CN(C)C(=O)c1cc2n(n1)CCCN(c1nc(OC[C@@]34CCCN3C[C@H](F)C4)nc3c1CN(C)[C@@]1(CCCc4ccccc41)C3)C2` [Compound 72, 5-[(7S)-2-[[(2R,8S)-2-fluoro-1,2,3,5,6,7-hexahydropyrrolizin-8-yl]methoxy]-6-methyl-spiro[5,8-dihydropyrido[4,3-d]pyrimidine-7,1′-tetralin]-4-yl]-N,N-dimethyl-4,6,7,8-tetrahydropyrazolo[1,5-a][1,4]diazepine-2-carboxamide] gave an IC50 of less than 10 nM.
For `CN(C)C(=O)c1cc2n(n1)CCCN(c1nc(OC[C@@]34CCCN3C[C@H](F)C4)nc3c1CN(C)C1(CCCc4ccc(O)cc41)C3)C2` (stereo partly drawn) [Compound 39, 5-[7′-hydroxy-6-methyl-2-[[(2R,8S)-2-fluoro-1,2,3,5,6,7-hexahydropyrrolizin-8-yl]methoxy]spiro[5,8-dihydropyrido[4,3-d]pyrimidine-7,1′-tetralin]-4-yl]-N,N-dimethyl-4,6,7,8-tetrahydropyrazolo[1,5-a][1,4]diazepine-2-carboxamide], the half-inhibitory concentration (IC50) was less than 10 nM.
`Oc1ccc2c(c1)C1(CCC2)Cc2nc(OC[C@@]34CCCN3C[C@H](F)C4)nc(N3CCCC(O)CC3)c2CO1` (stereo partly drawn) [Compound 14, 2-[[(2S,8R)-2-fluoro-1,2,3,5,6,7-hexahydropyrrolizin-8-yl]methoxy]-4-(4-hydroxyazepan-1-yl)spiro[5,8-dihydropyrano[4,3-d]pyrimidine-7,4′-tetralin]-6′-ol] came in with a half-maximal inhibitory concentration (IC50) of 1000 to 20000 nM.
With `CN1Cc2c(nc(OC[C@@]34CCCN3C[C@H](F)C4)nc2N2CCCn3nc(N)c(Cl)c3C2)C[C@]12CCCc1ccccc12` [Compound 79, 3-chloro-5-[(7S)-2-[[(2R,8S)-2-fluoro-1,2,3,5,6,7-hexahydropyrrolizin-8-yl]methoxy]-6-methyl-spiro[5,8-dihydropyrido[4,3-d]pyrimidine-7,1′-tetralin]-4-yl]-4,6,7,8-tetrahydropyrazolo[1,5-a][1,4]diazepin-2-amine], the IC50 was less than 10 nM.
With `CN1Cc2c(nc(OC[C@@]34CCCN3C[C@H](F)C4)nc2N2C[C@H]3CC[C@@H](C2)N3)C[C@]12CCCc1ccccc12` [Compound 84, (7S)-4-[(1R,5S)-3,8-diazabicyclo[3.2.1]octan-3-yl]-2-[[(2R,8S)-2-fluoro-1,2,3,5,6,7-hexahydropyrrolizin-8-yl]methoxy]-6-methyl-spiro[5,8-dihydropyrido[4,3-d]pyrimidine-7,1′-tetralin]], the IC50 was less than 10 nM.

(Values after patent publication US11912723B2, “KRAS modulators and uses thereof” (Quanta Therapeutics, Inc., priority 2022, dated 2024).)
